Laboratory results as given in patent US20100119612A1, “NANOPARTICLES COMPRISING NON-CRYSTALLINE DRUG” (Bend Research, Inc, priority 2007, published 2010).
In brackets after ≈: the same amount, converted by molar mass.

Legend:
[1] = In vivo evaluation in dogs (Example 2, oral suspension, plasma LC/MS/MS); parameters: species or system male beagle dogs; settings: fasted dogs, oral gavage, approx. 50 mL of 1.2 mgA/mL suspension
Method: The nanoparticles of Example 2 were evaluated in vivo in dogs. Samples were dosed orally as a suspension to 6 male beagle dogs.
Animals were fasted overnight (at least 10 hours predose) through 8 hours postdose. Approximately 50 mL of suspension (1.2 mgA/mL) was administered to each dog via oral gavage, followed by approximately 5 mL water. Whole-blood samples (7-mL sodium heparin Vacutainer tubes) were taken from the jugular vein before dosing and at 0.5, 1, 2, 3, 4, 6, 8, 12, 24, and 28 hours after dosing. […] was harvested into tubes containing K2EDTA anticoagulant. Blood was maintained on wet ice prior to centrifugation to obtain plasma. Centrifugation began within 1 hour of collection, and samples were centrifuged at 2500 rpm for 15 minutes. Plasma was maintained on dry ice prior to storage at approximately −70° C. Plasma was analyzed using liquid chromatography with tandem mass spectrometry (LC/MS/MS). Crystalline Drug 1 was tested for comparison.

[2] = Measurement of free drug by 19F NMR; format: physicochemical; settings: after 120 minutes; deuterated PBS with 2.0 wt % NaTC/POPC; 37° C.; 1000 μg/mL Drug 1 if all dissolved
Method: Alternatively, free drug for a nanoparticle suspension can be measured with nuclear magnetic resonance (NMR). In this method, the nanoparticles are equilibrated in an NMR tube with a buffered deuterium oxide solution. A specified amount of a reference standard is also added to the sample, such that the final concentration of the standard in the tube is known. An NMR spectrum is then acquired, and the integration of the drug peak(s) is compared to that of the reference standard to determine the actual dissolved drug concentration. Depending on the drug, either proton NMR (in which case a suitable reference standard is deuterated trimethylsilyl propionic acid) or fluorine NMR (in which case a suitable reference standard is trifiuoroacetic acid) may be employed. Because NMR is sensitive only to materials in the solution state or in micelles, only the drug that is not sequestered in nanopartides is measured by this method.
The solution was mixed, and an ^19F internal standard solution of trifluoroacetic acid (TFA) was added. […] This solution was vortexed 1 minute, and then carefully transferred to an 8 mm glass NMR tube.
Fluorine spectra of the sample was recorded at 282.327 MHz on a Varian Gemini 2000, 300 MHz NMR equipped with a Nalorac 8 mm indirect detection probe. […] Drug resonances were integrated relative to the internal standard peak and the drug concentration determined. […]

Log P of the drug = format: physicochemical; settings: octanol/water; method not stated
From the text: By hydrophobic is meant that the Log P of the drug is at least 4. The LogP of the drug may be at least 5, at least 6, or even at least 7. Log P, defined as the base 10 logarithm of the ratio of (1) the drug concentration in an octanol phase to (2) the drug concentration (in its unionized form if the drug may be ionized) in a water phase when the two phases are in equilibrium with each other, is a widely accepted measure of hydrophobicity. Log P may be measured experimentally or calculated using methods known in the art. When using a calculated value for Log P, the highest value calculated using any generally accepted method for calculating Log P is used. […] Preferably the Log P value is calculated by using the average value estimated using Crippen's, Viswanadhan's, and Broto's fragmentation methods.

[3] = Solubility of crystalline drug in 2 wt % NaTC/POPC; format: physicochemical; settings: 2 wt % NaTC/POPC solution, fassgf or other biorelevant, thermodynamic from solid

| SMILES | AUC0-∞ [1] | Cmax [1] | Tmax [1] | Free Drug [2] [µg/mL] | logP (Log P of the drug) | solubility [3] [µg/mL] |
| --- | --- | --- | --- | --- | --- | --- |
| CCOC(=O)N1c2ccc(C(F)(F)F)cc2[C@@H](N(Cc2cc(C(F)(F)F)cc(C(F)(F)F)c2)C(=O)OC)C[C@H]1CC [Drug 1, [2R,4S] 4-[(3,5-bis-trifluoromethyl-benzyl)-methoxycarbonyl-amino]-2-ethyl-6-trifluoromethyl-3,4-dihydro-2H-quinoline-1-carboxylic acid ethyl ester] | <LOQ | <LOQ* | <LOQ | 15 | ~7.55 |  |
| CC[C@@H]1C[C@H](N(Cc2cc(C(F)(F)F)cc(C(F)(F)F)c2)C(C)=O)c2cc(C(F)(F)F)ccc2N1C(=O)OC(C)C [Drug 2, [2R,4S] 4-[acetyl-(3,5-bis-trifluoromethyl-benzyl)-amino]-2-ethyl-6-trifluoromethyl-3,4-dihydro-2H-quinoline-1-carboxylic acid isopropyl ester] |  |  |  |  | ~7.55 | ~8 (≈ 13.4 µM) |
